From patent US7109338B2, “1,2-disubstituted 1,4-dihydro-4-oxoquinoline compounds” (priority 1999, dated 2006)
≈ marks a conversion by molar mass, not a printed value.

Experiments:
HRV 2 (HGP) = assay: Anti-rhinovirus activity (MTT), HRV2; type: cell-based, human rhinovirus; design: Anti-Rhinovirus activity, HRV2: unit not given here
[1] = Cytotoxicity (MTT, without virus), HeLa(Ohio); conditions: human, HeLa (Ohio strain) cells (uninfected)
[2] = test system: human rhinovirus type 1B (HRV 1B, B632); assay: Anti-rhinovirus activity (MTT), HRV1B; type: cell-based; design: Anti-Rhinovirus activity, HRV1B: unit not given here
HRV 89 (41617-Gallo) = assay: Anti-rhinovirus activity (MTT), HRV89; type: cell-based, human rhinovirus; design: Anti-Rhinovirus activity, HRV89: unit not given here
HeLa cells = assay: Cytotoxicity (MTT, without virus), HeLa; conditions: HeLa, no virus, incubated for 4 days
HRV8(MRH) = assay: Anti-rhinovirus spectrum (MTT), HRV8; type: cell-based, human rhinovirus; design: Anti-Rhinovirus activity, HRV8: unit not given here; conditions: HRV8
HRV41 (56110) = assay: Anti-rhinovirus spectrum (MTT), HRV41; type: cell-based, human rhinovirus; design: Anti-Rhinovirus activity, HRV41: unit not given here; conditions: HRV41
HRV31 (41F) = assay: Anti-rhinovirus spectrum (MTT), HRV31; type: cell-based, human rhinovirus; design: Anti-Rhinovirus activity, HRV31: unit not given here; conditions: HRV31
[3] = test system: clinical isolate (89229T); assay: microbe, parasite or virus in culture; type: cell-based, human rhinovirus; design: Anti-Rhinovirus activity, Clinical isolated strain: unit not given here; conditions: Clinical isolated strain
HRV21 (47) = assay: Anti-rhinovirus spectrum (MTT), HRV21; type: cell-based, human rhinovirus; design: Anti-Rhinovirus activity, HRV21: unit not given here; conditions: HRV21
HRV39 (209) = assay: Anti-rhinovirus spectrum (MTT), HRV39; type: cell-based, human rhinovirus; design: Anti-Rhinovirus activity, HRV39: unit not given here; conditions: HRV39
HRV10 (204-CV14) = assay: Anti-rhinovirus spectrum (MTT), HRV10; type: cell-based, human rhinovirus; design: Anti-Rhinovirus activity, HRV10: unit not given here; conditions: HRV10
HRV14 (1059) = assay: Anti-rhinovirus activity (MTT), HRV14; type: cell-based, human rhinovirus; design: Anti-Rhinovirus activity, HRV14: unit not given here; conditions: for IC50 HRV 14: HeLa (Ohio strain) cells, MTT method, 33° C.
HRV33 (1200) = assay: Anti-rhinovirus spectrum (MTT), HRV33; type: cell-based, human rhinovirus; design: Anti-Rhinovirus activity, HRV33: unit not given here; conditions: HRV33
HRV16 (11757) = assay: Anti-rhinovirus spectrum (MTT), HRV16; type: cell-based, human rhinovirus; design: Anti-Rhinovirus activity, HRV16: unit not given here; conditions: HRV16
HRV13 (353) = assay: Anti-rhinovirus spectrum (MTT), HRV13; type: cell-based, human rhinovirus; design: Anti-Rhinovirus activity, HRV13: unit not given here; conditions: HRV13
HRV1A (E28) = assay: Anti-rhinovirus activity (MTT), HRV1A; type: cell-based, human rhinovirus; design: Anti-Rhinovirus activity, HRV1A: unit not given here; conditions: for IC50 HRV 1A: HeLa (Ohio strain) cells, MTT method, 33° C.
HeLa (Ohio strain)cells = assay: Cytotoxicity (MTT, without virus), HeLa(Ohio); conditions: HeLa(Ohio), no virus, incubated for 4 days
HRV32 (363) = assay: Anti-rhinovirus spectrum (MTT), HRV32; type: cell-based, human rhinovirus; design: Anti-Rhinovirus activity, HRV32: unit not given here; conditions: HRV32
HRV61 (6669-CV39) = assay: Anti-rhinovirus spectrum (MTT), HRV61; type: cell-based, human rhinovirus; design: Anti-Rhinovirus activity, HRV61: unit not given here; conditions: HRV61
HRV29 (5582) = assay: Anti-rhinovirus spectrum (MTT), HRV29; type: cell-based, human rhinovirus; design: Anti-Rhinovirus activity, HRV29: unit not given here; conditions: HRV29
HRV50(A2#58) = assay: Anti-rhinovirus spectrum (MTT), HRV50; type: cell-based, human rhinovirus; design: Anti-Rhinovirus activity, HRV50: unit not given here; conditions: HRV50
[4] = test system: Poliovirus type 1 (Polio 1, Sabin); assay: microbe, parasite or virus in culture; type: cell-based
[5] = test system: echovirus type 11 (Echo 11, Gregory); assay: In vitro anti-picornavirus activity (MTT), Echo 11; type: cell-based; conditions: HeLa-S3 cells, MTT method, 37° C.
[6] = test system: coxsackievirus type A7 (CA7); assay: In vitro anti-picornavirus activity (MTT), CA7; type: cell-based; conditions: HeLa-S3 cells, MTT method, 37° C.
HRV36 (342H) = assay: Anti-rhinovirus spectrum (MTT), HRV36; type: cell-based, human rhinovirus; design: Anti-Rhinovirus activity, HRV36: unit not given here; conditions: HRV36
HRV3(FEB) = assay: Anti-rhinovirus spectrum (MTT), HRV3; type: cell-based, human rhinovirus; design: Anti-Rhinovirus activity, HRV3: unit not given here; conditions: HRV3
HRV5 = assay: Anti-rhinovirus spectrum (MTT), HRV5; type: cell-based, human rhinovirus; design: Anti-Rhinovirus activity, HRV5: unit not given here; conditions: HRV5
[7] = test system: coxsackievirus type B4 (CB4,JVB); assay: In vitro anti-picornavirus activity (MTT), CB4; type: cell-based; conditions: HeLa cells, MTT method, 37° C.
HeLa-S3 cells = assay: Cytotoxicity (MTT, without virus), HeLa-S3; conditions: HeLa-S3, no virus, incubated for 4 days
[8] = HeLa (Ohio strain) cells, MTT method, 33° C.

Row | SMILES | Cytotoxicity CC50 HeLa (HeLa cells) | Anti-Rhinovirus activity, HRV8 (HRV8(MRH)) | Anti-Rhinovirus activity, HRV41 (HRV41 (56110)) | Anti-Rhinovirus activity, HRV31 (HRV31 (41F)) | Anti-Rhinovirus activity, Clinical isolated strain [3] | Anti-Rhinovirus activity, HRV21 (HRV21 (47)) | Anti-Rhinovirus activity, HRV39 (HRV39 (209)) | Anti-Rhinovirus activity, HRV10 (HRV10 (204-CV14)) | Anti-Rhinovirus activity, HRV14 (HRV14 (1059)) | IC50 HRV 14 (HRV14 (1059)) | Anti-Rhinovirus activity, HRV33 (HRV33 (1200)) | Anti-Rhinovirus activity, HRV16 (HRV16 (11757)) | Anti-Rhinovirus activity, HRV2 (HRV 2 (HGP); HRV2) | IC50 HRV2 (HRV 2 (HGP); [8]) | Anti-Rhinovirus activity, HRV13 (HRV13 (353)) | Anti-Rhinovirus activity, HRV1A (HRV1A (E28)) | IC50 HRV 1A (HRV1A (E28)) | Cytotoxicity CC50 HeLa(Ohio) (HeLa (Ohio strain)cells) | Anti-Rhinovirus activity, HRV32 (HRV32 (363)) | Anti-Rhinovirus activity, HRV1B ([2]; HRV1B) | other results
1 | Cc1c(-c2ccccc2)n(-c2ccc(Cl)cc2)c2ccc(C(C)C)cc2c1=O [Compound A324, 1-(4-chlorophenyl)-2-phenyl-3-methyl-6-isopropyl-1,4-dihydro-4-oxoquinoline] | – | – | – | – | – | – | – | – | – | – | – | – | – | – | – | – | – | – | – | – | IC50 (HRV 2 (HGP); Human rhinovirus sp., HRV2, HeLa (Ohio strain) cells, MTT method, 33° C., read-out: IC50 HRV2): 0.12 µg/mL (≈ 0.309 µM); CC50 at 4 days [1]: > 1 µg/mL; IC50 ([2]; Human rhinovirus sp., HRV1B, HeLa (Ohio strain) cells, MTT method, 33° C., read-out: IC50 HRV1B): 0.53 µg/mL (≈ 1.37 µM); melting point: 233 to 235 °C; IC50 (HRV 89 (41617-Gallo); Human rhinovirus sp., HRV89, HeLa (Ohio strain) cells, MTT method, 33° C., read-out: IC50 HRV89): 0.046 µg/mL (≈ 0.119 µM)
2 | CCn1c2c(c(=O)c3cc(CC(C)C)ccc31)Cc1cc(OC)ccc1-2 [Compound B15] | >2.5 µg/mL | 0.38 | 0.18 | 0.38 | 1.1 | 0.34 | 0.46 | 1.1 | 0.84 | 0.84 µg/mL (≈ 2.42 µM) | 0.29 | 1.2 | 0.44 | 0.44 µg/mL (≈ 1.27 µM) | 0.18 | >2.5 | >2.5 µg/mL | >2.5 µg/mL | 0.65 | 0.36 | IC50 HRV1B [2, 8]: 0.36 µg/mL (≈ 1.04 µM); Anti-Rhinovirus activity, HRV61 (HRV61 (6669-CV39)): 0.39; Anti-Rhinovirus activity, HRV29 (HRV29 (5582)): 0.67; Anti-Rhinovirus activity, HRV50 (HRV50(A2#58)): 0.28; IC50 Polio 1 [4]: 0.49 µg/mL (≈ 1.41 µM); IC50 Echo 11 [5]: 0.27 µg/mL (≈ 0.777 µM); IC50 CA7 [6]: 2.2 µg/mL (≈ 6.33 µM); Anti-Rhinovirus activity, HRV36 (HRV36 (342H)): 0.32; Anti-Rhinovirus activity, HRV3 (HRV3(FEB)): 1.1; Anti-Rhinovirus activity, HRV5 (HRV5): 0.39; IC50 CB4 [7]: 1.9 µg/mL (≈ 5.47 µM); Anti-Rhinovirus activity, HRV89 (HRV 89 (41617-Gallo); HRV89): 0.39; IC50 HRV89 (HRV 89 (41617-Gallo); [8]): 0.39 µg/mL (≈ 1.12 µM); Cytotoxicity CC50 HeLa-S3 (HeLa-S3 cells): >2.5 µg/mL
3 | CCn1c2c(c(=O)c3cc(C(C)C)ccc31)Cc1cc(OC)c(C)cc1-2 [Compound B20] | >2.5 µg/mL | 0.29 | 0.12 | 0.18 | 0.49 | 0.14 | 0.35 | 0.42 | 0.51 | 0.51 µg/mL (≈ 1.47 µM) | 0.097 | 0.44 | 0.19 | 0.19 µg/mL (≈ 0.547 µM) | 0.13 | >2.5 | >2.5 µg/mL | >2.5 µg/mL | 0.29 | 0.23 | IC50 HRV1B [2, 8]: 0.23 µg/mL (≈ 0.662 µM); Anti-Rhinovirus activity, HRV61 (HRV61 (6669-CV39)): 0.31; Anti-Rhinovirus activity, HRV29 (HRV29 (5582)): 0.44; Anti-Rhinovirus activity, HRV50 (HRV50(A2#58)): 0.18; IC50 Polio 1 [4]: 0.40 µg/mL (≈ 1.15 µM); IC50 Echo 11 [5]: 0.28 µg/mL (≈ 0.806 µM); IC50 CA7 [6]: 1.4 µg/mL (≈ 4.03 µM); Anti-Rhinovirus activity, HRV36 (HRV36 (342H)): 0.20; Anti-Rhinovirus activity, HRV3 (HRV3(FEB)): 0.50; Anti-Rhinovirus activity, HRV5 (HRV5): 0.23; IC50 CB4 [7]: 0.60 µg/mL (≈ 1.73 µM); Anti-Rhinovirus activity, HRV89 (HRV 89 (41617-Gallo); HRV89): 0.18; IC50 HRV89 (HRV 89 (41617-Gallo); [8]): 0.18 µg/mL (≈ 0.518 µM); Cytotoxicity CC50 HeLa-S3 (HeLa-S3 cells): >2.5 µg/mL
4 | CCn1c2c(c(=O)c3cc(C(C)C)ccc31)Cc1cc(OC)c(OC)cc1-2 [Compound B22] | >10 µg/mL | 0.46 | 0.14 | 0.14 | 0.43 | 0.18 | 0.46 | 0.53 | 0.86 | 0.86 µg/mL (≈ 2.37 µM) | 0.16 | 1.2 | 0.50 | 0.55 µg/mL (≈ 1.51 µM) | 0.13 | >5.9 | >5.9 µg/mL | >10 µg/mL | 0.19 | 0.44 | IC50 HRV1B [2, 8]: 0.44 µg/mL (≈ 1.21 µM); Anti-Rhinovirus activity, HRV61 (HRV61 (6669-CV39)): 0.34; Anti-Rhinovirus activity, HRV29 (HRV29 (5582)): 0.56; Anti-Rhinovirus activity, HRV50 (HRV50(A2#58)): 0.17; IC50 Polio 1 [4]: 0.54 µg/mL (≈ 1.49 µM); IC50 Echo 11 [5]: 0.39 µg/mL (≈ 1.07 µM); IC50 CA7 [6]: 1.9 µg/mL (≈ 5.23 µM); Anti-Rhinovirus activity, HRV36 (HRV36 (342H)): 0.25; Anti-Rhinovirus activity, HRV3 (HRV3(FEB)): 0.97; Anti-Rhinovirus activity, HRV5 (HRV5): 0.43; IC50 CB4 [7]: 1.3 µg/mL (≈ 3.58 µM); Anti-Rhinovirus activity, HRV89 (HRV 89 (41617-Gallo); HRV89): 0.36; IC50 HRV89 (HRV 89 (41617-Gallo); [8]): 0.36 µg/mL (≈ 0.99 µM); Cytotoxicity CC50 HeLa-S3 (HeLa-S3 cells): >10 µg/mL
